Reference: article PMC7473772 (eLife, 2020)
Numbering of substitutions follows the chain as printed. Where “and” joins values, the source holds several entries; their conditions need not be identical. Equal values may be shown once.

Tests used:
[1] = biological target: T1, tbaqp1-2-3 null cells expressing TbAQP2 WT or Trp/Met mutants (Trypanosoma brucei brucei, UniProt Q6ZXT3, L218W); format: cell-based; conditions: AQP2 mutant L218W
T1 sequence (Q6ZXT3 1-312 L218W): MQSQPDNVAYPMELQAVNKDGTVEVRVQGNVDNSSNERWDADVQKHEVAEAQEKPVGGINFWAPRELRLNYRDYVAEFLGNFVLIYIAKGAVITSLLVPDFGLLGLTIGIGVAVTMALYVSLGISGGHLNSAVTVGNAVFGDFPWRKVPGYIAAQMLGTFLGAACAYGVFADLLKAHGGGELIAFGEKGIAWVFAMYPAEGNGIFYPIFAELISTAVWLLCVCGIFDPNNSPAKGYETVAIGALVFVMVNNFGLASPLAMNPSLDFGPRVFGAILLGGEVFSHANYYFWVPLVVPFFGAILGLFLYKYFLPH

[2] = biological target: T2, tbaqp1-2-3 null cells expressing TbAQP2 WT or Trp/Met mutants (Trypanosoma brucei brucei, UniProt Q6ZXT3, L84M); format: cell-based; conditions: AQP2 mutant L84M
T2 sequence (Q6ZXT3 1-312 L84M): T1 sequence (Q6ZXT3 1-312 L218W) with L84M, W218L

[3] = biological target: T3, tbaqp1-2-3 null cells expressing TbAQP2 WT or Trp/Met mutants (Trypanosoma brucei brucei, UniProt Q6ZXT3, L118W/L84W); format: cell-based; conditions: AQP2 mutant L84W/L118W
T3 sequence (Q6ZXT3 1-312 L84W/L118W): T1 sequence (Q6ZXT3 1-312 L218W) with L84W, L118W, W218L

[4] = biological target: T4, tbaqp1-2-3 null cells expressing TbAQP2 WT or Trp/Met mutants (Trypanosoma brucei brucei, UniProt Q6ZXT3, L218M); format: cell-based; conditions: AQP2 mutant L218M
T4 sequence (Q6ZXT3 1-312 L218M): T1 sequence (Q6ZXT3 1-312 L218W) with W218M

[5] = biological target: tbaqp1-2-3 null cells expressing TbAQP2 WT or Trp/Met mutants (Trypanosoma brucei brucei, UniProt Q6ZXT3); format: cell-based; conditions: + AQP2 WT
[6] = biological target: T5, tbaqp1-2-3 null cells expressing TbAQP2 WT or Trp/Met mutants (Trypanosoma brucei brucei, UniProt Q6ZXT3, L118W); format: cell-based; conditions: AQP2 mutant L118W
T5 sequence (Q6ZXT3 1-312 L118W): T1 sequence (Q6ZXT3 1-312 L218W) with L118W, W218L

[7] = biological target: T6, tbaqp1-2-3 null cells expressing TbAQP2 WT or Trp/Met mutants (Trypanosoma brucei brucei, UniProt Q6ZXT3, L118M); format: cell-based; conditions: AQP2 mutant L118M
T6 sequence (Q6ZXT3 1-312 L118M): T1 sequence (Q6ZXT3 1-312 L218W) with L118M, W218L

[8] = system: tbaqp1-2-3 null cells expressing TbAQP2 WT or Trp/Met mutants; format: cell-based, Trypanosoma brucei brucei; conditions: triple KO AQP1-3
[9] = biological target: T7, tbaqp1-2-3 null cells expressing TbAQP2 WT or Trp/Met mutants (Trypanosoma brucei brucei, UniProt Q6ZXT3, L84W); format: cell-based; conditions: AQP2 mutant L84W
T7 sequence (Q6ZXT3 1-312 L84W): T1 sequence (Q6ZXT3 1-312 L218W) with L84W, W218L

## OCC(O)CO [Glycerol]
[1]
  Glycerol uptake, percent of + AQP2 WT, single replicates: 75.79% of + AQP2 WT and 58.22% of + AQP2 WT and 78.07% of + AQP2 WT
[1]; exp HK1560
  Glycerol uptake, single replicates: 13962.75 dpm and 12032 dpm and 15866.50 dpm
[1]; n=3
  Glycerol uptake, AVG: 13954 dpm
  Glycerol uptake, percent of + AQP2 WT, AVG: 70.7% of + AQP2 WT
[2]
  Glycerol uptake, percent of + AQP2 WT, single replicates: 71.54% of + AQP2 WT and 78.57% of + AQP2 WT and 85.30% of + AQP2 WT
[2]; exp HK1560
  Glycerol uptake, single replicates: 13178.67 dpm and 16239.50 dpm and 17336.50 dpm
[2]; n=3
  Glycerol uptake, AVG: 15585 dpm
  Glycerol uptake, percent of + AQP2 WT, AVG: 78.5% of + AQP2 WT
[3]
  Glycerol uptake, percent of + AQP2 WT, single replicates: 26.06% of + AQP2 WT and 22.48% of + AQP2 WT and 15.25% of + AQP2 WT
[3]; exp HK1560
  Glycerol uptake, single replicates: 4801.50 dpm and 4646.75 dpm and 3099.50 dpm
[3]; n=3
  Glycerol uptake, AVG: 4183 dpm
  Glycerol uptake, percent of + AQP2 WT, AVG: 21.3% of + AQP2 WT
[4]
  Glycerol uptake, percent of + AQP2 WT, single replicates: 85.78% of + AQP2 WT and 59.96% of + AQP2 WT and 82.90% of + AQP2 WT
[4]; exp HK1560
  Glycerol uptake, single replicates: 15802.25 dpm and 12393.00 dpm and 16849.00 dpm
[4]; n=3
  Glycerol uptake, AVG: 15015 dpm
  Glycerol uptake, percent of + AQP2 WT, AVG: 76.2% of + AQP2 WT
[5]
  Glycerol uptake, percent of + AQP2 WT, single replicates: 100.00% of + AQP2 WT
[5]; n=3
  Glycerol uptake, percent of + AQP2 WT, AVG: 100.0% of + AQP2 WT
[6]
  Glycerol uptake, percent of + AQP2 WT, single replicates: 36.39% of + AQP2 WT and 32.80% of + AQP2 WT and 32.53% of + AQP2 WT
[6]; exp HK1560
  Glycerol uptake, single replicates: 6704.25 dpm and 6779.50 dpm and 6612.25 dpm
[6]; n=3
  Glycerol uptake, AVG: 6699 dpm
  Glycerol uptake, percent of + AQP2 WT, AVG: 33.9% of + AQP2 WT
[7]
  Glycerol uptake, percent of + AQP2 WT, single replicates: 62.48% of + AQP2 WT and 49.85% of + AQP2 WT
[7]; exp HK1560
  Glycerol uptake, single replicates: 11510.33 dpm and 10303.00 dpm
[7]; n=2
  Glycerol uptake, percent of + AQP2 WT, AVG: 56.2% of + AQP2 WT
[8]
  Glycerol uptake, percent of + AQP2 WT, single replicates: 18.67% of + AQP2 WT and 17.85% of + AQP2 WT and 11.96% of + AQP2 WT
[8]; exp HK1560
  Glycerol uptake, single replicates: 3439.75 dpm and 3689.75 dpm and 2430 dpm
[8]; n=3
  Glycerol uptake, AVG: 3187 dpm
  Glycerol uptake, percent of + AQP2 WT, AVG: 16.2% of + AQP2 WT
[9]
  Glycerol uptake, percent of + AQP2 WT, single replicates: 55.50% of + AQP2 WT and 63.99% of + AQP2 WT and 46.33% of + AQP2 WT
[9]; exp HK1560
  Glycerol uptake, single replicates: 10224.8 dpm and 13226.00 dpm and 9416.00 dpm
[9]; n=3
  Glycerol uptake, AVG: 10956 dpm
  Glycerol uptake, percent of + AQP2 WT, AVG: 55.3% of + AQP2 WT
